Test results: patent US11021469B2, “Indoline sulfonamide inhibitors of DapE and NDM-1 and use of the same” (priority 2014, dated 2021)

Each molecule was assayed against NDM-1 (Klebsiella pneumoniae, UniProt C7C422) (assay: Inhibition of NDM-1 assay (CHROMACEF hydrolysis)). Conditions: pH 7, read-out: % NMD-1 Inhibition (5 μM).
Sequence of NDM-1 (C7C422 36-270 limits assumed): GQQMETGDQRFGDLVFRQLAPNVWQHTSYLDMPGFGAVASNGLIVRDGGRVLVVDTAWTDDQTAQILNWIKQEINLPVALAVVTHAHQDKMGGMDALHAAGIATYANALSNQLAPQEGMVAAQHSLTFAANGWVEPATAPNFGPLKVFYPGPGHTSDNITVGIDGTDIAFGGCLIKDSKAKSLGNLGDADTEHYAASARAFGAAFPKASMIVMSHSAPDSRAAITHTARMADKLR
Type: biochemical
Method: The ability of the compounds described herein to inhibit NDM-1 was determined in the following way.
A Substrate Working Solution was prepared from CRHROMACEF (6 μM) and Tween-20 (0.02% v/v) in water. An Enzyme Working Solution was prepared with NDM-1 (0.5 μg/mL), Hepes (0.1 M), pH 7 and Tween-20 (0.02% v/v). An Inhibitor Working Solution was prepared from 50 mM of the inhibitor in DMSO. The final assay conditions were 1 mL, Hepes (50 mM), pH 7, Tween-20 (0.02% v/v), CHROMACEF (3 uM), Δ35 NDM-1 (0.25 μg/mL). Extra zinc was omitted from these assays because extra ZnSO4 interferes with the metal binding groups in inhibitors.
An aliquot of the Inhibitor Working Solution was added to a polystyrene disposable cuvette to achieve a final concentration of 0-50 μM (in 1 mL final). Supplemental DMSO was added to reach a final volume of 4 μL. NDM-1 Working Solution (0.05 mL) was added to the cuvette and the inhibitor and enzyme were allowed to incubate for about 20 minutes. The reaction was initiated by added 0.5 mL Substrate Working Solution. The solution was mixed quickly, but gently to avoid bubble formation. CHROMACEF […] was recorded to start the reaction. The reaction was mixed fast, but gently. The change in absorbance ΔAbs442nm/min was measured for each inhibitor from the linear slope from each inhibitor concentration.
In the case of CCNS(=O)(=O)c1cc(Br)cc2c1N(C(C)=O)CC2, the inhibition at 5 µM is reported as 16.8%.
With CC(=O)N1CCc2cc(Br)cc(S(=O)(=O)NCCC(C)C)c21 the inhibition at 5 µM was 62.7%.
CC(=O)N1CCc2cc(Br)cc(S(=O)(=O)NCc3ccccc3)c21 showed an inhibition at 5 µM of 27.3%.
